Values of other authors in patent publication US12237054B2, “Model for high-throughput screening of endocrine disruptor and method for screening same” (Nanjing University, priority 2018, dated 2025).

System: HEK293T
Settings: standardized Activity value, data from public databases (ToxCast/Tox21, ChEMBL)

CC(C)C(=O)Nc1ccc([N+](=O)[O-])c(C(F)(F)F)c1 [Flutamide]
cytotoxicity experimental value: 4.4
